Reference: ChEMBL document CHEMBL4219180, “Dibenzofuran, dibenzothiophene and N-methyl carbazole tethered 2-aminothiazoles and their cinnamamides as potent inhibitors of Mycobacterium tuberculosis” (Bioorg Med Chem Lett, 2018)
In brackets after ≈: the same amount, converted by molar mass.

What was measured:
[1] = tested on: Mycobacterium tuberculosis; experiment: Antimycobacterial activity against Mycobacterium tuberculosis H37Rv ATCC 27294 after 28 days by agar dilution method; type: functional; conditions: H37Rv ATCC 27294, 672 h
[2] = Growth inhibition of HEK293T cells at 50 ug/ml after 72 hrs by MTT assay; type: cell-based, HEK-293T; conditions: human, read-out: GI
[3] = tested on: Mycobacterium tuberculosis; experiment: Antimycobacterial activity against Mycobacterium tuberculosis; type: functional

Which results are given for `CC(C)c1ccc(/C=C/C(=O)Nc2nc(-c3ccc4sc5ccccc5c4c3)cs2)cc1`?
MIC [1]: 0.78 µg/mL (≈ 1.72 µM); inhibition at 72 h, 50 ug/ml [2]: 43.1%

What does the source list for `O=C(/C=C/c1ccccc1)Nc1nc(-c2ccc3oc4ccccc4c3c2)cs1`?
MIC [1]: 50 µg/mL (≈ 126 µM); inhibition at 72 h, 50 ug/ml [2]: 52.6%

For `Cn1c2ccccc2c2cc(-c3csc(NC(=O)/C=C/c4ccc(F)cc4)n3)ccc21`, which MIC [1] is on record?
Its MIC is 50 µg/mL (≈ 117 µM).

And the inhibition at 72 h, 50 ug/ml [2]?
The inhibition at 72 h, 50 ug/ml was 23.8%.

Which MIC [1] does the source give for `Nc1nc(-c2ccc3oc4ccccc4c3c2)cs1` here?
The MIC was 1.56 µg/mL (≈ 5.86 µM).

What about the inhibition at 72 h, 50 ug/ml [2] of the same molecule?
The inhibition at 72 h, 50 ug/ml was 48.1%.

With `NC(=O)c1cnccn1` [PYRAZINAMIDE] as the molecule, how does the MIC [1] read?
The MIC was 50 µg/mL (≈ 406 µM).

Which results are given for `CC(C)c1ccc(/C=C/C(=O)Nc2nc(-c3ccc4c(c3)c3ccccc3n4C)cs2)cc1`?
MIC [1]: 50 µg/mL (≈ 111 µM); inhibition at 72 h, 50 ug/ml [2]: 62%

With `CC(C)c1ccc(/C=C/C(=O)Nc2nc(-c3ccc4oc5ccccc5c4c3)cs2)cc1` as the molecule, how does the MIC [1] read?
Its MIC is 6.25 µg/mL (≈ 14.3 µM).

And the inhibition at 72 h, 50 ug/ml [2]?
The inhibition at 72 h, 50 ug/ml was 42.2%.

Which MIC [1] does the source give for `Cn1c2ccccc2c2cc(-c3csc(NC(=O)/C=C/c4ccc(Br)cc4)n3)ccc21` here?
The MIC was 0.78 µg/mL (≈ 1.6 µM).

And the inhibition at 72 h, 50 ug/ml [2]?
The inhibition at 72 h, 50 ug/ml was 12.1%.

With `O=C(/C=C/c1ccccc1)Nc1nc(-c2ccc3sc4ccccc4c3c2)cs1` as the molecule, how does the MIC [1] read?
The MIC was 50 µg/mL (≈ 121 µM).

And the inhibition at 72 h, 50 ug/ml [2]?
The inhibition at 72 h, 50 ug/ml was 68.6%.

Which MIC [1] does the source give for `O=C(/C=C/c1ccc(Br)cc1)Nc1nc(-c2ccc3sc4ccccc4c3c2)cs1` here?
The MIC was 6.25 µg/mL (≈ 12.7 µM).

What about the inhibition at 72 h, 50 ug/ml [2] of the same molecule?
Its inhibition at 72 h, 50 ug/ml is 28.3%.

What does the source list for `Nc1nc(-c2ccc3sc4ccccc4c3c2)cs1`?
MIC [1]: 1.56 µg/mL (≈ 5.52 µM); inhibition at 72 h, 50 ug/ml [2]: 56.7%

What does the source list for `Cc1ccc(/C=C/C(=O)Nc2nc(-c3ccc4c(c3)c3ccccc3n4C)cs2)cc1`?
MIC [1]: 25 µg/mL (≈ 59 µM); inhibition at 72 h, 50 ug/ml [2]: 19.4%

For `CC[C@@H](CO)NCCN[C@@H](CC)CO` [ETHAMBUTOL], which MIC [1] is on record?
The MIC was 3.13 µg/mL (≈ 15.3 µM).

Which MIC [3] does the source give for `CC(=O)C1=C(O)C=C2Oc3c(C(C)=O)c(O)c(C)c(O)c3C2(C)C1=O` (stereo not given) here?
The MIC was 12.5 µg/mL (≈ 36.3 µM).

Which MIC [1] does the source give for `NNC(=O)c1ccncc1` [ISONIAZID] here?
Its MIC is 0.1 µg/mL (≈ 0.729 µM).

For `Cn1c2ccccc2c2cc(-c3csc(NC(=O)/C=C/c4ccccc4)n3)ccc21`, which MIC [1] is on record?
Its MIC is 50 µg/mL (≈ 122 µM).

And the inhibition at 72 h, 50 ug/ml [2]?
Its inhibition at 72 h, 50 ug/ml is 14.3%.

Which MIC [1] does the source give for `Cc1ccc(/C=C/C(=O)Nc2nc(-c3ccc4sc5ccccc5c4c3)cs2)cc1` here?
Its MIC is 50 µg/mL (≈ 117 µM).

What about the inhibition at 72 h, 50 ug/ml [2] of the same molecule?
Its inhibition at 72 h, 50 ug/ml is 48%.

For `Cn1c2ccccc2c2cc(-c3csc(N)n3)ccc21`, which MIC [1] is on record?
Its MIC is 12.5 µg/mL (≈ 44.7 µM).

What about the inhibition at 72 h, 50 ug/ml [2] of the same molecule?
Its inhibition at 72 h, 50 ug/ml is 38.1%.

Which MIC [1] does the source give for `O=C(/C=C/c1ccc(F)cc1)Nc1nc(-c2ccc3oc4ccccc4c3c2)cs1` here?
Its MIC is 50 µg/mL (≈ 121 µM).

And the inhibition at 72 h, 50 ug/ml [2]?
Its inhibition at 72 h, 50 ug/ml is 36.8%.

With `O=C(/C=C/c1ccc(F)cc1)Nc1nc(-c2ccc3sc4ccccc4c3c2)cs1` as the molecule, how does the MIC [1] read?
Its MIC is 0.78 µg/mL (≈ 1.81 µM).

And the inhibition at 72 h, 50 ug/ml [2]?
Its inhibition at 72 h, 50 ug/ml is 57.2%.

What does the source list for `Cc1ccc(/C=C/C(=O)Nc2nc(-c3ccc4oc5ccccc5c4c3)cs2)cc1`?
MIC [1]: 50 µg/mL (≈ 122 µM); inhibition at 72 h, 50 ug/ml [2]: 51.3%

For `O=C(/C=C/c1ccc(Br)cc1)Nc1nc(-c2ccc3oc4ccccc4c3c2)cs1`, which MIC [1] is on record?
Its MIC is 12.5 µg/mL (≈ 26.3 µM).

What about the inhibition at 72 h, 50 ug/ml [2] of the same molecule?
The inhibition at 72 h, 50 ug/ml was 68.6%.
